# Entries after “also recorded” stand apart in the source; their conditions may differ.
# Tests used:
# ePheRS* [1] = target: T1, ePheRS* (Escherichia coli, UniProt P08312, A294G); experiment: In vivo translational activity: mDHFR expression in E. coli AF-IQ[pQE-FS*] over-expressing ePheRS* (Ala294Gly); assay type: cell-based; details: ePheRS* over-expressed, Phe-depleted media supplemented with 2 (250 mg/L), versus background (-phe)
# T1 construct: expressed in transfected cells; host or cells: E. coli AF-IQ[pQE-FS*]
# T1 sequence (P08312 whole entry A294G): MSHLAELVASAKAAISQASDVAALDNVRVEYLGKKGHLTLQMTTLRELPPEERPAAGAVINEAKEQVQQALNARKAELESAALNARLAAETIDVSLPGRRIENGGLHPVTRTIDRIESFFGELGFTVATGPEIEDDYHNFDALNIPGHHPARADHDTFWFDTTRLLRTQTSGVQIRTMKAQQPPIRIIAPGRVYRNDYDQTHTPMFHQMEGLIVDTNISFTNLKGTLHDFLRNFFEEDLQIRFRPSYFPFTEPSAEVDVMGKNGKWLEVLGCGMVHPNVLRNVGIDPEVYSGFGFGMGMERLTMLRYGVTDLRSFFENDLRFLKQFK
# T1 sequence (P07395 whole entry, further chain): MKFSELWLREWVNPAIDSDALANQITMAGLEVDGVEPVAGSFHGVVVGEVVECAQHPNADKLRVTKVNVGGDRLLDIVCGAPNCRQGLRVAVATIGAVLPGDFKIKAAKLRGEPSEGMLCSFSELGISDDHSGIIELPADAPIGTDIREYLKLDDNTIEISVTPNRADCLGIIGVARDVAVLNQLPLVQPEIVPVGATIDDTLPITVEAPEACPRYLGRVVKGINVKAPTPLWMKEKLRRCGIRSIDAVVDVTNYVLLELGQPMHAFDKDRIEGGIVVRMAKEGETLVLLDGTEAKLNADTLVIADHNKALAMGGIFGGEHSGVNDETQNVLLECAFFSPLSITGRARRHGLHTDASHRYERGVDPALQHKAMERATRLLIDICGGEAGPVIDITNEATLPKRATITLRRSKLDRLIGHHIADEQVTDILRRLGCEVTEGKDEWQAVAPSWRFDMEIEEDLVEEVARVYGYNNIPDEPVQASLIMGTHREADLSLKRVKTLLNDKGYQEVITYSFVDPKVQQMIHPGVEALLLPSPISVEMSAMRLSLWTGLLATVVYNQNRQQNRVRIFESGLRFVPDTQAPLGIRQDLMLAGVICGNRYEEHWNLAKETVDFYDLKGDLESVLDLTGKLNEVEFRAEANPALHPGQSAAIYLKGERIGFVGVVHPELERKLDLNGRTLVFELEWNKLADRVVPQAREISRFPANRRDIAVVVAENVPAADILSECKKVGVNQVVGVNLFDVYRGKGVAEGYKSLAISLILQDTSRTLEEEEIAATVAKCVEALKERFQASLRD
# Procedure: (§1) AF-IQ, a phenylalanine auxotrophic E. coli strain carrying the repressor plasmid pLysS-IQ,^4 was transformed with pQE15, pQE-FS*, or pQE-FS** to generate expression systems AF-IQ[pQE15], AF-IQ[pQE-FS*], and AF-IQ[pQE-FS**], respectively. The capacity of 2 to support protein synthesis in each expression system was determined by induction of mDHFR expression in phenylalanine-free minimal media supplemented with 2.
# A phenylalanine auxotrophic derivative of E. coli strain BL21(DE3), designed AF (HsdS gal (χcIts857 ind I Dam5 lacUV5-T7 gene 1) pheA) and constructed in our laboratory, was used as the expression host. The AF strain was transformed with repressor plasmid pLysS-IQ and with pQE15, pQE-FS* or pQE-FS** to generate expression strains AF-IQ[pQE15], AF-IQ[pQE-FS*] or AF-IQ[pQE-FS**], respectively.
# Small scale (10 ml) cultures were used to investigate the in vivo translational activity of 2 (p-AcetylPhe). M9 minimal medium (50 ml) supplemented with 0.2% glucose, 1 mg/L thiamine, 1 mM MgSO4, 1 mM CaCl2, 19 amino acids (at 20 mg/L), antibiotics (ampicillin 200 mg/L, chloramphenicol 35 mg/L) and phenylalanine (at 20 mg/L) was inoculated with 1 ml of an overnight culture of the expression strain. […] Cells were cultured for 4 hours post-induction and protein expression was monitored by SDS polyacrylamide gel electrophoresis (PAGE, 12%), using a normalized OD600 of 0.2 per sample.
# ePheRS = target: T2, ePheRS (Escherichia coli, UniProt P08312); experiment: In vivo translational activity: mDHFR expression in Phe-auxotrophic E. coli AF-IQ[pQE15] (no mutant synthetase); assay type: cell-based; details: phenylalanine-free minimal media supplemented with 2 (250 mg/L), 4 hr post-induction, versus background (-phe)
# T2 construct: endogenous in cells; host or cells: E. coli AF-IQ[pQE15]; (Phe-auxotrophic BL21(DE3) derivative)
# T2 sequence (P07395 whole entry): as the sequence (P07395 whole entry, further chain) above
# T2 sequence (P08312 whole entry): as the sequence (P08312 whole entry A294G) above, with G294A counted along it
# Procedure: as §1
# (§2) The AF strain was transformed with repressor plasmid pLysS-IQ and with pQE15, pQE-FS* or pQE-FS** to generate expression strains AF-IQ[pQE15], AF-IQ[pQE-FS*] or AF-IQ[pQE-FS**], respectively.
# Small scale (10 ml) cultures were used to investigate the in vivo translational activity of 2 (p-AcetylPhe). M9 minimal medium (50 ml) supplemented with 0.2% glucose, 1 mg/L thiamine, 1 mM MgSO4, 1 mM CaCl2, 19 amino acids (at 20 mg/L), antibiotics (ampicillin 200 mg/L, chloramphenicol 35 mg/L) and phenylalanine (at 20 mg/L) was inoculated with 1 ml of an overnight culture of the expression strain. When the optical density at 600 nm reached 0.8–1.0, a medium shift was performed. […] Cells were cultured for 4 hours post-induction and protein expression was monitored by SDS polyacrylamide gel electrophoresis (PAGE, 12%), using a normalized OD600 of 0.2 per sample.
# ePheRS** = target: T3, ePheRS** (Escherichia coli, UniProt P08312, A294G/T251G); assay type: cell-based
# T3 construct: expressed in transfected cells; host or cells: E. coli AF-IQ[pQE-FS**]
# T3 sequence (P08312 whole entry T251G/A294G): as the sequence (P08312 whole entry A294G) above, with T251G counted along it
# T3 sequence (P07395 whole entry, further chain): as the sequence (P07395 whole entry, further chain) above
# Procedure: The capacity of 2 to support protein synthesis in each expression system was determined by induction of mDHFR expression in phenylalanine-free minimal media supplemented with 2.
# as §2
# Small scale (10 ml) cultures were used to investigate the in vivo translational activity of 2 (p-AcetylPhe). M9 minimal medium (50 ml) supplemented with 0.2% glucose, 1 mg/L thiamine, 1 mM MgSO4, 1 mM CaCl2, 19 amino acids (at 20 mg/L), antibiotics (ampicillin 200 mg/L, chloramphenicol 35 mg/L) and phenylalanine (at 20 mg/L) was inoculated with 1 ml of an overnight culture of the expression strain. When the optical density at 600 nm reached 0.8–1.0, a medium shift was performed. Cells were sedimented by centrifugation for 15 min at 3,100 g at 4° C., the supernatant was removed and the cell pellets were washed twice with 0.9% NaCl. Cells were resuspended in supplemented M9 medium containing either: (a) 250 mg/L of p-AcetylPhe 2, (b) 20 mg/L phe (1) (positive control), or (c) no phe or analog (negative control). Protein expression was induced 10 min after the medium shift by addition of isopropyl-β-D-thiogalactoside (IPTG) to a final concentration of 1 mM. Cells were cultured for 4 hours post-induction and protein expression was monitored by SDS polyacrylamide gel electrophoresis (PAGE, 12%), using a normalized OD600 of 0.2 per sample.
# ePheRS* [2] = target: T1, ePheRS*; details: over-expression of ePheRS*; earlier work; cited from earlier work
structure (smiles),measurement,setting,value
"CC(=O)c1ccc(C[C@H](N)C(=O)O)cc1 [compound 2, p-acetylphenylalanine]","protein (mDHFR) expression, SDS-PAGE of whole cell lysates",ePheRS* [1],did not produce substantial yields of protein; also recorded: neither AF-IQ[pQE15] nor AF-IQ[pQE-FS*] exhibits protein expression above background
same,"protein (mDHFR) expression, SDS-PAGE of whole cell lysates",ePheRS,neither AF-IQ[pQE15] nor AF-IQ[pQE-FS*] exhibits protein expression above background
same,"protein (mDHFR) expression, SDS-PAGE of whole cell lysates","ePheRS**; AF-IQ[pQE-FS**], phenylalanine-free minimal media supplemented with 2 (250 mg/L)",high levels of mDHFR expression
same,replacement of 1 by 2 in mDHFR,"ePheRS**; from MALDI-TOF mass increase of mDHFR-2, mDHFR contains 9 Phe residues",approximately 80%
same,misincorporation of canonical amino acids,ePheRS**; media supplemented with 2,no detectable misincorporation
[N-]=[N+]=Nc1ccc(C[C@H](N)C(=O)O)cc1 [p-azidophenylalanine],incorporation into recombinant proteins in E. coli hosts,ePheRS* [2],efficient incorporation
N[C@@H](Cc1ccc(Br)cc1)C(=O)O [p-bromophenylalanine],incorporation into recombinant proteins in E. coli hosts,ePheRS* [2],efficient incorporation
N#Cc1ccc(C[C@H](N)C(=O)O)cc1 [p-cyanophenylalanine],incorporation into recombinant proteins in E. coli hosts,ePheRS* [2],efficient incorporation
C#Cc1ccc(C[C@H](N)C(=O)O)cc1 [p-ethynylphenylalanine],incorporation into recombinant proteins in E. coli hosts,ePheRS* [2],efficient incorporation
N[C@@H](Cc1ccc(I)cc1)C(=O)O [p-iodophenylalanine],incorporation into recombinant proteins in E. coli hosts,ePheRS* [2],efficient incorporation
N[C@@H](Cc1c[nH]c2ccccc12)C(=O)O [tryptophan],misincorporation into protein by ePheRS**,ePheRS**; phe starvation conditions in the absence of 2,misincorporation
N[C@@H](Cc1ccc(O)cc1)C(=O)O [tyrosine],misincorporation into protein,ePheRS**; under any conditions,not observed misincorporation

# — patent US7139665B2, “Computational method for designing enzymes for incorporation of non natural amino acids into proteins” (California Institute of Technology, priority 2002, dated 2006)
